# How the values were obtained:
# [1] = Disposition rate constant in subject at 5.21 mg/kg, po by gas chromatography; type: ADME, organism-based; settings: female, human, in vivo
# [2] = Disposition rate constant in subject at 4.33 mg/kg, po by gas chromatography; type: ADME, organism-based; settings: male, human, in vivo
# Homo sapiens [3] = experiment: Disposition rate constant in newborn infants (2 patients) at 12 mg/kg, im by gas chromatography; type: ADME, organism-based; settings: in vivo
# [4] = Disposition rate constant in newborn infants at 20.6 mg/kg, po by gas chromatography; type: ADME, organism-based; settings: human, in vivo
# [5] = Disposition rate constant in newborn infants at 11.4 mg/kg, im by gas chromatography; type: ADME, organism-based; settings: human, in vivo
# [6] = Half life in subject at 5.21 mg/kg, po by gas chromatography; type: ADME, organism-based; settings: female, human, in vivo
# [7] = Half life in subject at 4.33 mg/kg, po by gas chromatography; type: ADME, organism-based; settings: male, human, in vivo
# Homo sapiens [8] = experiment: Half life in newborn infants (2 patients) at 12 mg/kg, im by gas chromatography; type: ADME, organism-based; settings: in vivo
# [9] = Half life in newborn infants at 20.6 mg/kg, po by gas chromatography; type: ADME, organism-based; settings: human, in vivo
# [10] = Half life in newborn infants at 11.4 mg/kg, im by gas chromatography; type: ADME, organism-based; settings: human, in vivo
# Homo sapiens [11] = experiment: Apparent drug level in subject at 5.21 mg/kg, po measured at time zero by gas chromatography; type: ADME, organism-based; settings: in vivo
# Homo sapiens [12] = experiment: Apparent drug level in subject at 4.33 mg/kg, po measured at time zero by gas chromatography; type: ADME, organism-based; settings: in vivo
# Homo sapiens [13] = experiment: Apparent drug level in newborn infants (2 patients) at 12 mg/kg, im measured at time zero by gas chromatography; type: ADME, organism-based; settings: in vivo
# Homo sapiens [14] = experiment: Apparent drug level in newborn infants at 20.6 mg/kg, po measured at time zero by gas chromatography; type: ADME, organism-based; settings: in vivo
# Homo sapiens [15] = experiment: Apparent drug level in newborn infants at 11.4 mg/kg, po measured at time zero by gas chromatography; type: ADME, organism-based; settings: in vivo
# Homo sapiens [16] = experiment: Apparent volume of distribution in subject at 5.21 mg/kg, po by gas chromatography; type: ADME, organism-based; settings: in vivo
# Homo sapiens [17] = experiment: Apparent volume of distribution in male subject at 4.33 mg/kg, po by gas chromatography; type: ADME, organism-based; settings: in vivo
# Homo sapiens [18] = experiment: Apparent volume of distribution in newborn infants (2 patients) at 12 mg/kg, im by gas chromatography; type: ADME, organism-based; settings: in vivo
# Homo sapiens [19] = experiment: Apparent volume of distribution in newborn infants at 20.6 mg/kg, po by gas chromatography; type: ADME, organism-based; settings: in vivo
# Homo sapiens [20] = experiment: Apparent volume of distribution in newborn infants at 11.4 mg/kg, im by gas chromatography; type: ADME, organism-based; settings: in vivo
# [21] = Plasma concentration in subject at 5.21 mg/kg, po measured after 17 days by gas chromatography; type: ADME, organism-based; settings: female, human
# [22] = Drug excretion in subject assessed as phenobarbital, p-hydroxyphenobarbital and conjugated p-hydroxyphenobarbital level in urine at 5.21 mg/kg, po measured during first 2 weeks by gas chromatography; type: ADME, organism-based; settings: human, in vivo, 336 h
# [23] = Drug excretion in subject assessed as phenobarbital, p-hydroxyphenobarbital and conjugated p-hydroxyphenobarbital level in urine at 4.33 mg/kg, po measured during first 2 weeks by gas chromatography; type: ADME, organism-based; settings: human, in vivo, 336 h
# [24] = Drug excretion in subject assessed as phenobarbital, p-hydroxyphenobarbital and conjugated p-hydroxyphenobarbital level in urine at 5.21 mg/kg, po measured during 4 week period by gas chromatography; type: ADME, organism-based; settings: human, in vivo, 672 h
# [25] = Drug excretion in po dosed adult (2 subjects) assessed as unchanged compound level in urine at measured during first 8 days by gas chromatography; type: ADME, organism-based; settings: human, read-out: Drug excretion
# [26] = Drug excretion in newborn infants (4 patients) assessed as unchanged compound level in urine at measured during first 8 days by gas chromatography; type: ADME; settings: human, read-out: Drug excretion
# [27] = Drug excretion in newborn infants (4 patients) assessed as p-hydroxy phenobarbital level in urine at measured during first 8 days by gas chromatography; type: ADME, tissue-based; settings: human, in vivo, 192 h
compound,measurement,setting,value
CCC1(c2ccccc2)C(=O)NC(=O)NC1=O [PHENOBARBITAL],k el,[1],1.64e-06 s⁻¹
same,k el,[2],2.28e-06 s⁻¹
same,K,Homo sapiens [3],0.004 h⁻¹
same,k el,[4],2.33e-06 s⁻¹
same,k el,[5],1.61e-06 s⁻¹
same,half-life,[6],117 h
same,half-life,[7],84 h
same,t1/2,Homo sapiens [8],61 h
same,half-life,[9],83 h
same,half-life,[10],119 h
same,Drug uptake,Homo sapiens [11],10 µg/mL
same,Drug uptake,Homo sapiens [12],9.3 µg/mL
same,Drug uptake,Homo sapiens [13],18.1 µg/mL
same,Drug uptake,Homo sapiens [14],21 µg/mL
same,Drug uptake,Homo sapiens [15],17.8 µg/mL
same,Vd(app),Homo sapiens [16],0.52 L/kg
same,Vd(app),Homo sapiens [17],0.47 L/kg
same,Vd(app),Homo sapiens [18],0.59 L/kg
same,Vd(app),Homo sapiens [19],0.98 L/kg
same,Vd(app),Homo sapiens [20],0.99 L/kg
same,concentration at 408 h,[21],500 ng/mL
same,Drug excretion,[22],65%
same,Drug excretion,[23],35%
same,Drug excretion,[24],75%
same,dose excreted at 192 h,[25],16%
same,dose excreted at 192 h,[26],17%
same,Drug excretion,[27],10%

# From ChEMBL document CHEMBL3785044, “Phenobarbital metabolism in adults and in newborn infants” (Acta Paediatr Scand, 1978)
